Assay results taken from patent publication US12568960B2, “Adjuvant combinations as foliar uptake accelerator for herbicidal compositions” (Bayer Aktiengesellschaft, priority 2019, dated 2026).

What was measured:
cuticula of apple leaves = test: Membrane (cuticle) penetration test
Experimental: The properties of the adjuvant combinations according to the invention as penetration enhancers were measured in a membrane penetration test on the cuticula of apple leaves.
Determination of bioavailability of various herbicides, plant growth regulators (PGRs) and safeners by cuticle penetration test.
The leaf cuticles were isolated enzymatically as described in the literature. The stomata-free cuticles were first dried under air and introduced into stainless steel diffusion cells. After the application of the test liquids to the original top side of the leaf and evaporation of liquid, the diffusion cells were transferred into thermostat blocks and loaded with water. At regular intervals, aliquot samples were taken, and the amount of active ingredient diffused was determined by means of HPLC. […] Detection was effected with a DAD detector. The results given in each case are the geometric penetration averages at the average measurement times. According to the variance, 10 repeat measurements were conducted.
Typically, a spray solution of the active ingredient (0.5 g of active ingredient/l) was produced. An aliquot was applied to an apple cuticle and left to dry. The operation was repeated 10 times. The amount absorbed through the cuticles in the uptake solution is determined by HPLC as described above. The measurements were made after 0, 6, 12, 24, 36 or 48 h.

[1] = Dynamic surface tension, bubble pressure method; type: physicochemical; conditions: 6 g/l
Experimental: Dynamic surface tension was determined via the bubble pressure method (BP2100 tensiometer, Krüss).

[2] = Table 8, mefenpyr-diethyl SC formulation, no adjuvant
[3] = Table 9, mefenpyr-diethyl SC formulation, no adjuvant
[4] = Table 7, bixlozone standard SC formulation, no adjuvant
[5] = Table 19, bixlozone SC formulation, no adjuvant
[6] = Table 26, bixlozone EC formulation, no adjuvant
[7] = Table 24, Compound 3 WP20 formulation, cuticle from 2016, no adjuvant
[8] = Table 30, Compound 5 WP20 formulation, no adjuvant
[9] = Table 31, Compound 6 WP20 formulation, no adjuvant
[10] = Table 20, prohexadione-Ca EC formulation, no adjuvant
[11] = Table 12, Rinskor EC formulation, adjuvant 2 g/l

Molecule: CCOC(=O)C1=NN(c2ccc(Cl)cc2Cl)C(C)(C(=O)OCC)C1 (racemic) [Mefenpyr-diethyl, Diethyl (RS)-1-(2,4-dichlorophenyl)-4,5-dihydro-5-methyl-1H-pyrazole-3,5-dicarboxylate]
- Cuticle penetration 12 h in % (cuticula of apple leaves; [2]): 4%
- Cuticle penetration 24 h in % (cuticula of apple leaves; [2]): 9%
- Cuticle penetration 48 h in % (cuticula of apple leaves; [2]): 16%
- Cuticle penetration 24 h in % (cuticula of apple leaves; [3]): 17%
- Cuticle penetration 48 h in % (cuticula of apple leaves; [3]): 59%

Molecule: CC1(C)CON(Cc2ccc(Cl)cc2Cl)C1=O [Bixlozone, 2-(2,4-Dichlorobenzyl)-4,4-dimethylisoxazolidin-3-one]
- Cuticle penetration 6 h in % (cuticula of apple leaves; [4]): 21%
- Cuticle penetration 12 h in % (cuticula of apple leaves; [4]): 42%
- Cuticle penetration 24 h in % (cuticula of apple leaves; [4]): 62%
- Cuticle penetration 24 h in % (cuticula of apple leaves; [5]): 24%
- Cuticle penetration 48 h in % (cuticula of apple leaves; [5]): 73%
- Cuticle penetration 6 h in % (cuticula of apple leaves; [6]): 27%
- Cuticle penetration 12 h in % (cuticula of apple leaves; [6]): 29%
- Cuticle penetration 24 h in % (cuticula of apple leaves; [6]): 31%

Molecule: NC(=O)c1ccc(C(F)(F)F)nc1O [Compound 3]
- Cuticle penetration 12 h in % (cuticula of apple leaves; [7]): 0%
- Cuticle penetration 24 h in % (cuticula of apple leaves; [7]): 0%
- Cuticle penetration 48 h in % (cuticula of apple leaves; [7]): 0%

Molecule: Cc1ccc2c(c1)C(Nc1ncc(C(C)(C)O)cn1)[C@@H](C)C2 (stereo partly drawn) [Compound 5]
- Cuticle penetration 12 h in % (cuticula of apple leaves; [8]): 6%
- Cuticle penetration 24 h in % (cuticula of apple leaves; [8]): 14%
- Cuticle penetration 48 h in % (cuticula of apple leaves; [8]): 52%

Molecule: Cc1ccc2c(c1)C(Nc1nc3n(n1)CCCCS3)CCC2 (stereo not drawn) [Compound 6]
- Cuticle penetration 12 h in % (cuticula of apple leaves; [9]): 0%
- Cuticle penetration 24 h in % (cuticula of apple leaves; [9]): 0%
- Cuticle penetration 48 h in % (cuticula of apple leaves; [9]): 2%

Molecule: CCC(=O)C1=C([O-])CC(C(=O)[O-])CC1=O.[Ca+2] (stereo not drawn) [Prohexadione-Ca, Calcium 3-oxido-5-oxo-4-propionyl-cyclohex-3-enecarboxylate]
- Cuticle penetration 24 h in % (cuticula of apple leaves; [10]): 18%
- Cuticle penetration 48 h in % (cuticula of apple leaves; [10]): 44%

Molecule: Cn1nc(C(F)(F)F)c(CS(=O)(=O)C2=NOC(C)(C)C2)c1OC(F)F [Pyroxasulfone, 3-[5-(Difluoromethoxy)-1-methyl-3-(trifluoromethyl)pyrazol-4-ylmethylsulfonyl]-4,5-dihydro-5,5-dimethyl-1,2-oxazole]
- Cuticle penetration 24 h in % (cuticula of apple leaves; apple, 24 h, 0.5 g/l): 2%

Molecule: CCCCOCCOP(=O)(OCCOCCCC)OCCOCCCC [TBEP, Tributoxyethyl phosphate]
- Penetration enhancement (in words) (cuticula of apple leaves; bixlozone, summary of Table 7): shows distinctly lower uptake of bixlozone than TEHP
- Penetration enhancement (in words) (cuticula of apple leaves; tembotrione (Laudis SC), summary of Tables 5 and 6): does not enhance the uptake of tembotrione

Molecule: CCCCC(CC)COP(=O)(OCC(CC)CCCC)OCC(CC)CCCC (stereo not drawn) [TEHP, Tris(2-ethylhexyl) phosphate]
- Dynamic surface tension 20 ms [1]: 71.7 mN/m
- Dynamic surface tension 50 ms [1]: 71.7 mN/m
- Dynamic surface tension 200 ms [1]: 71.6 mN/m
- Dynamic surface tension 500 ms [1]: 71.5 mN/m
- Penetration enhancement (in words) (cuticula of apple leaves; mefenpyr-diethyl, summary of Tables 8 and 9): has better penetration-enhancing properties compared to TBEP in the combination

Molecule: CS(=O)(=O)c1ccc(C(=O)C2C(=O)CCCC2=O)c(Cl)c1COCC(F)(F)F [Tembotrione]
- Cuticle penetration 6 h in % (cuticula of apple leaves; apple, 6 h, 0.5 g/l): 0%
- Cuticle penetration 12 h in % (cuticula of apple leaves; apple, 12 h, 0.5 g/l): 0%

Molecule: Ammonium sulfate [AMS]
- Cuticle penetration 24 h in % (cuticula of apple leaves; [11]): 5%
- Cuticle penetration 48 h in % (cuticula of apple leaves; [11]): 15%
